Results: patent US20250188083A1, “Modulators of Histone Acetyltransferase 1 and Methods of Treatment Thereof” (The Board of Trustees of the Leland Stanford Junior …, priority 2021, published 2025)
pEC50, pIC50, pKi: −log10 of the molar value. Where “and” joins values, the source holds several entries; their conditions need not be identical. Equal entries are not always repeated.

What was measured:
[1] = target: HAT1/Rbap46 enzyme complex (Homo sapiens, UniProt O14929); assay: HAT1 acetylation (acetyl-click) assay with 4-pentynoyl-CoA; type: biochemical; conditions: for HAT1 inhibitory activity in library screens (rank, active or inactive): single-dose screening; for HAT1 inhibitory activity of flavonoids in dose-response: dose-response curves, FIG. 13; for pIC50: dose-response, 4-pentynoyl-CoA co-factor, read-out: IC50 for HAT1 enzymatic inhibition; for inhibition of HAT1/Rbap46 by bi-substrate inhibitors: 10 μM
Procedure: FIG. 6 provides a schematic of a histone acetyltransferase 1 (HAT1) acetylation assay in accordance with various embodiments. HAT1/Rbap46 purified enzyme complex is incubated with 4-pentynoyl-CoA and histone H4 N-terminal biotinylated peptide in the presence or absence of test compounds. Then reaction products are bound to neutravidin 96-well plate, washed, functionalized by copper(I)-catalyzed cycloaddition click chemistry with biotin-azide. Then, streptavidin-HRP is bound and detected by amplex red fluorescence reaction.
Percent inhibition was calculated according the following formula: […]

[2] = system: HCC1806 cell line; assay: Cell growth inhibition (CellTiter-Blue / resazurin); type: cell-based, human
Procedure: (§1) hTert-HME1, HCC1806, HCC1937, A549 were maintained in a humified incubator at 37deg C. with 5% CO2. HCC1806 and HCC1937 were grown in RPMI with 10% FBS and 1% penicillin-streptomycin. A549 was grown in F-12 media with 10% FBS and 1% penicillin-streptomycin. hTert-HME1 was grown in Mammary Epithelial Growth Media (PromoCell). Drug treatments were performed in 96-well plates. Cells were seeded at 5000 cells per well, then allowed to attach overnight. Drug dilutions were made in 96-well plates then transferred to plate containing cells and incubated for 48-72 hours. Cell density was then determined by CellTiter-Blue (Promega). For capillary immunoassays hTert-HME1 5E5 cells were seeded in 10 cm plates and cultured for 48 hours, then cells were washed 2× in PBS and EGF-free MEGM was added overnight. The next day, cells were treated in EGF-free media with 1% dialyzed BSA+drug for 30 minutes, then EGF was added to the plate and cells were cultured for 8, 10 and 12 hours before harvesting. Microcapillary immunoassays were performed on a SimpleWestern Wes instrument using H4K12-Ac antibody (Abcam ab46983) at 1:25 dilution, H4K5-Ac antibody (Millipore 07-327) at 1:50 dilution, HAT1 (Abcam ab194296) at 1:50 dilution, nascent H4 (Abcam ab7311) at 1:10 dilution, nascent H3 (Abcam ab18521) at 1:50 dilution, actin (Thermo-Fisher MA5-15452) at 1:100 dilution.

[3] = target: T1, bacterially-expressed recombinant HAT1 (Homo sapiens, UniProt O14929); conditions: Ngo, Brown, Zheng 2019; read-out: Ki towards recombinant HAT1; cited from earlier work
T1 sequence (O14929 1-419): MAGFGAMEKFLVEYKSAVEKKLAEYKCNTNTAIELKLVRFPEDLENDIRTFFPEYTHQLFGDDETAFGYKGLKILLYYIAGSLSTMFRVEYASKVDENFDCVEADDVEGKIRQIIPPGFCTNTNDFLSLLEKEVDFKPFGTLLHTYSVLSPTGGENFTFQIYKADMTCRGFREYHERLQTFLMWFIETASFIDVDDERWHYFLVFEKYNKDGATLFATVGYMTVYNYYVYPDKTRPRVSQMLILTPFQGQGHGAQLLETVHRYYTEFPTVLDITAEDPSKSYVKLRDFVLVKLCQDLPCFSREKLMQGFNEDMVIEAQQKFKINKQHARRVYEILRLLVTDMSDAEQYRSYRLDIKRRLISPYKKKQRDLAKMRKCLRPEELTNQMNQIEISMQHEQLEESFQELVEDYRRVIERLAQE

[4] = target: T2, CBP (Homo sapiens, UniProt Q92793); assay: Other acetyltransferase assay (3H-Acetyl-CoA, Creative Biomart); type: biochemical; conditions: 10-point dose curve from 100 μM
T2 construct: Creative Biomart (assay service)
Procedure: (§2) Acetylation assays on 7 targets (CBP, GCN5, KAT5, MYST2/KAT7, MYST4/KAT6b, p300, pCAF) was performed by Creative Biomart. […] Reaction buffer was 50 mM Tris-HCL, 0.1 mM EDTA, 250 mM NaCl, 1 mM DTT, 1% DMSO, pH 8.0, using 3 μM 3H-Acetyl-CoA, reaction time of 1 hour at 30 degrees Celsius, with substrate conversion rate between 5-20%. Enzymes were diluted in reaction buffer, followed by addition of compound with Acoustic Technology in nanoliter range, incubated at room temperature for 20 minutes, then 3H-Acetyl-CoA was added. Reaction was incubated at 30 minutes at 30 degrees Celsius, then transferred to filter paper for detection.

[5] = target: T3, GCN5 (Homo sapiens, UniProt Q92830); assay: as above; type: biochemical; conditions: 10-point dose curve from 100 μM
T3 construct: Creative Biomart (assay service)
Procedure: as §2

[6] = target: T4, KAT5 (Homo sapiens, UniProt Q92993); assay: as above; type: biochemical; conditions: 10-point dose curve from 100 μM
T4 construct: Creative Biomart (assay service)
Procedure: as §2

[7] = target: T5, MYST2/KAT7 (Homo sapiens, UniProt O95251); assay: as above; type: biochemical; conditions: 10-point dose curve from 100 μM
T5 construct: Creative Biomart (assay service)
Procedure: as §2

[8] = target: T6, MYST4/KAT6b (Homo sapiens, UniProt Q8WYB5); assay: as above; type: biochemical; conditions: 10-point dose curve from 100 μM
T6 construct: Creative Biomart (assay service)
Procedure: as §2

[9] = target: T7, PCAF (Homo sapiens, UniProt Q92831); assay: as above; type: biochemical; conditions: 10-point dose curve from 100 μM
T7 construct: Creative Biomart (assay service)
Procedure: as §2

[10] = target: T8, p300 (Homo sapiens, UniProt Q09472); assay: as above; type: biochemical; conditions: 10-point dose curve from 100 μM
T8 construct: Creative Biomart (assay service)
Procedure: as §2

[11] = system: A549 cell line; assay: Cell growth inhibition (CellTiter-Blue / resazurin); type: cell-based; conditions: Homo sapiens
Procedure: as §1

[12] = system: HCC1937 cell line; assay: as above; type: cell-based; conditions: Homo sapiens
Procedure: as §1

[13] = system: H4 lysine 5 and 12 acetylation; assay: Capillary immunoassay of H4 acetylation in hTert-HME1 cells; type: cell-based, human
Procedure: At some timepoints, decreased H4 protein levels were also observed, consistent with prior studies of the effects of HAT1 depletion (J. J. Gruber, et al., Mol Cell 75:711-724 e5, 2019, cited supra).
as §1, with “Microcapillary immunoassays were performed on a SimpleWestern Wes instrument using H4K12-Ac antibody (Abcam ab46983) at 1:25 dilution, H4K5-Ac antibody (Millipore 07-327) at 1:50 dilution, HAT1 (Abcam ab194296) at 1:50 dilution, nascent H4 (Abcam ab7311) at 1:10 dilution, nascent H3 (Abcam ab18521) at 1:50 dilution, actin (Thermo-Fisher MA5-15452) at 1:100 dilution.” left out

[14] = Fluorescence imaging of harvested organs (compound distribution); type: in vivo, mice; conditions: 24 hours
Text: Organs were harvested and excited with UV light (230 nm) and imaged with a yellow-green filter.

[15] = mouse, in vivo, ip
[16] = system: A549 tumors; assay: A549 tumor growth in NSG mice
Procedure: P-value calculated by least squares regression and extra sum-of-squares F-test. N=5 mice per group.
A549 cells were infected with 3 lentiviral shRNAs targeting the human HAT1 mRNA (Origene #TL312517). Six-to-eight-week-old NSG female mice (Jackson Labs #005557) were shaved, then 500,000 A549 tumor cells were injected into bilateral flanks and tumor growth was assessed by tri-dimensional tumor measurements to yield tumor volumes. For drug treatments, analog 2016 was resuspended in a 1:1 mixture of PEG-400 and PBS+1% dialyzed BSA-0.2 μm-filtered (MilliporeSigma #12-660-910GM). Intraperitoneal injections (200 μL) were performed with a 21-G needle. Tumor measurements were performed with digital calipers.

HAT1/Rbap46 enzyme complex, sequence (Q16576 whole entry partner, one chain of several): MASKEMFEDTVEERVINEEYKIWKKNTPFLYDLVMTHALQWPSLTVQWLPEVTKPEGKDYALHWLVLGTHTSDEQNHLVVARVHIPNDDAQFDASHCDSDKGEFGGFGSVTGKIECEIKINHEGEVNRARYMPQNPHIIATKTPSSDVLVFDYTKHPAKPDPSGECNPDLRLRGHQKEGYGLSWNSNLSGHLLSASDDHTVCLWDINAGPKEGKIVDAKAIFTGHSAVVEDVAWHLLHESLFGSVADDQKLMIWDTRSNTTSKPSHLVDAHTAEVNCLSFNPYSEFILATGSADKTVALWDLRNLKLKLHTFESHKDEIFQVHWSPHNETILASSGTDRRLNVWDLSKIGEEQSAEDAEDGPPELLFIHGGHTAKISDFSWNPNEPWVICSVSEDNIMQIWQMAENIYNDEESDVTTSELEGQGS
T7 sequence (Q92831 whole entry): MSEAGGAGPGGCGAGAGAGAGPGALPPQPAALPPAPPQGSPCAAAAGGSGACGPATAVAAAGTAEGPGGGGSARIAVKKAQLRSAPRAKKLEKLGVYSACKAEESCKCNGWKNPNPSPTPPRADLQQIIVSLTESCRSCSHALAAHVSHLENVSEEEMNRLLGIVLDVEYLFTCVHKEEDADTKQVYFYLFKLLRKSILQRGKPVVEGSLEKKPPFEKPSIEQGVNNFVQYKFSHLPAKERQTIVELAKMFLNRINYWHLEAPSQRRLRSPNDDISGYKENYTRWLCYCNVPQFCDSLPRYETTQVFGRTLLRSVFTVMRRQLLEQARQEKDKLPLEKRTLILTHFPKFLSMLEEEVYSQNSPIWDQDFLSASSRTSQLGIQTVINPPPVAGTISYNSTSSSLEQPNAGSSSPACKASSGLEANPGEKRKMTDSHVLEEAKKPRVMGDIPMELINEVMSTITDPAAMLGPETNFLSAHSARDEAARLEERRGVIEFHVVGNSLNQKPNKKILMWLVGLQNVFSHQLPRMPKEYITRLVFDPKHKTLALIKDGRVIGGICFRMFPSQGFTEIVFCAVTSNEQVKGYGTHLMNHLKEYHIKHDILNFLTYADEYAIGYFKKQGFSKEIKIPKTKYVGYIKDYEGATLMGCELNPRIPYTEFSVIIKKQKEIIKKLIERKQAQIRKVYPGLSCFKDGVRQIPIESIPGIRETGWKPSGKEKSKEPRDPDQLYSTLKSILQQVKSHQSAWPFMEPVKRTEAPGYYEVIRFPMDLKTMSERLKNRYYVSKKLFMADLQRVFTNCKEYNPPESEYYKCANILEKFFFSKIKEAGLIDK
T2 sequence (Q92793 whole entry): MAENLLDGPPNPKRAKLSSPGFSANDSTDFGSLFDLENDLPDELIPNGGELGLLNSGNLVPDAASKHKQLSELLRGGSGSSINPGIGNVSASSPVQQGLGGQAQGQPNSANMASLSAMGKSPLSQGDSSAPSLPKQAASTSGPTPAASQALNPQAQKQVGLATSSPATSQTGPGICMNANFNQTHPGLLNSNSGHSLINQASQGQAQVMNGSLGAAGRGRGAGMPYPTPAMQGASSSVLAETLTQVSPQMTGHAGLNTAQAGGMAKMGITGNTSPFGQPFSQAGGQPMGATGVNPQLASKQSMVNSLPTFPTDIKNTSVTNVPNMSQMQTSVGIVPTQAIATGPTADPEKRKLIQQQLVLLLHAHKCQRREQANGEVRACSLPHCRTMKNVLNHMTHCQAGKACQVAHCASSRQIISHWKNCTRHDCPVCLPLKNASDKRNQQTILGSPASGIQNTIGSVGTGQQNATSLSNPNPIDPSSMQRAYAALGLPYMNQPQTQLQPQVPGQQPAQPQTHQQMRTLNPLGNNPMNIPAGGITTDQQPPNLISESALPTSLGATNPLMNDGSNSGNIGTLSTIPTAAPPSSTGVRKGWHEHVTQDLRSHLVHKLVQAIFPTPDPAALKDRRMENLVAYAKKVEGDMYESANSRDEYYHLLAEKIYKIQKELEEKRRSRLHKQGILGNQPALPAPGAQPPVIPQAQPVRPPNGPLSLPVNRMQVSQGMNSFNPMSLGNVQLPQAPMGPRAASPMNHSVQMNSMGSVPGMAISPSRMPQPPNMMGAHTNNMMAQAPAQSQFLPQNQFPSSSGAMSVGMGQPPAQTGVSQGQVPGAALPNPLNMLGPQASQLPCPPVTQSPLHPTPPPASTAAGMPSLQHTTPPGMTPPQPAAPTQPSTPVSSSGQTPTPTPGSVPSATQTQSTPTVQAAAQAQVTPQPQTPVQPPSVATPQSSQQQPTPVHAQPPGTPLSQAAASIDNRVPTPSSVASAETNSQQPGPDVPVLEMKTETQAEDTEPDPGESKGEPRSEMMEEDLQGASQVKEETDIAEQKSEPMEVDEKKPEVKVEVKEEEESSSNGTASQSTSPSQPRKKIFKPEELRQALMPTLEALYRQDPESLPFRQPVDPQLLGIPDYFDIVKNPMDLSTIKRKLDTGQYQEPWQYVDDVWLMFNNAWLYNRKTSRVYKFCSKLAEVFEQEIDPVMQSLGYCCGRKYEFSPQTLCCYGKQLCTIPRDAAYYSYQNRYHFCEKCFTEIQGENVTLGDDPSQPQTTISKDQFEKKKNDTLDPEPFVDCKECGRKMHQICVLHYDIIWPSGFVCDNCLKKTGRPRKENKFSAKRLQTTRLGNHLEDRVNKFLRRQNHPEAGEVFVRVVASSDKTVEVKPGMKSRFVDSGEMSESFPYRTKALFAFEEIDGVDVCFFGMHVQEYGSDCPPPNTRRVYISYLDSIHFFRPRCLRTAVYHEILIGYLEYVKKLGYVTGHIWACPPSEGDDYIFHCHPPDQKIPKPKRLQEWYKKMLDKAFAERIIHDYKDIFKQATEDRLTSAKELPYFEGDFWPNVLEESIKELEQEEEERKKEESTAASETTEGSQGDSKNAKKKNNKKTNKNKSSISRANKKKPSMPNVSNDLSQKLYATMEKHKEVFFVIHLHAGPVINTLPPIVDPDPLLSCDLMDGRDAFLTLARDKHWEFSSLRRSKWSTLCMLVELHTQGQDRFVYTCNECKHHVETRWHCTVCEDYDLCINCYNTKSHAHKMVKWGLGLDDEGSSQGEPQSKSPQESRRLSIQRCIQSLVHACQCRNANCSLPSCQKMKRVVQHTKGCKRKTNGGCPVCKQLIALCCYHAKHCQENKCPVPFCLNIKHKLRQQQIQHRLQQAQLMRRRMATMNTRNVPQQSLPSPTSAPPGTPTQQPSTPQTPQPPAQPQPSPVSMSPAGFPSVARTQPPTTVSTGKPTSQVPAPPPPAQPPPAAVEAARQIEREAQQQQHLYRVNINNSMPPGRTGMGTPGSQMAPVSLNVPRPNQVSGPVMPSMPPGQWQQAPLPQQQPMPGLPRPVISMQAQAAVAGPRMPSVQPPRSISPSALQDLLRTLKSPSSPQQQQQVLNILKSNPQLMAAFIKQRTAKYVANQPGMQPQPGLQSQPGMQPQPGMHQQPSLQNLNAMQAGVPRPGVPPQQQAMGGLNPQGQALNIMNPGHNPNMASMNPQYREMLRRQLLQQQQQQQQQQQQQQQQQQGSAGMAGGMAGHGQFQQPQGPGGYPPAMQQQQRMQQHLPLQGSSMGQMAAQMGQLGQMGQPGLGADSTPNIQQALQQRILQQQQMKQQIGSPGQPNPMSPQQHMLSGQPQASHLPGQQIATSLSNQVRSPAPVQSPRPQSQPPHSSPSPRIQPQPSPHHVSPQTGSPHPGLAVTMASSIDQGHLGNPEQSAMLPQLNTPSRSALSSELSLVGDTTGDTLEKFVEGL
T5 sequence (O95251 whole entry): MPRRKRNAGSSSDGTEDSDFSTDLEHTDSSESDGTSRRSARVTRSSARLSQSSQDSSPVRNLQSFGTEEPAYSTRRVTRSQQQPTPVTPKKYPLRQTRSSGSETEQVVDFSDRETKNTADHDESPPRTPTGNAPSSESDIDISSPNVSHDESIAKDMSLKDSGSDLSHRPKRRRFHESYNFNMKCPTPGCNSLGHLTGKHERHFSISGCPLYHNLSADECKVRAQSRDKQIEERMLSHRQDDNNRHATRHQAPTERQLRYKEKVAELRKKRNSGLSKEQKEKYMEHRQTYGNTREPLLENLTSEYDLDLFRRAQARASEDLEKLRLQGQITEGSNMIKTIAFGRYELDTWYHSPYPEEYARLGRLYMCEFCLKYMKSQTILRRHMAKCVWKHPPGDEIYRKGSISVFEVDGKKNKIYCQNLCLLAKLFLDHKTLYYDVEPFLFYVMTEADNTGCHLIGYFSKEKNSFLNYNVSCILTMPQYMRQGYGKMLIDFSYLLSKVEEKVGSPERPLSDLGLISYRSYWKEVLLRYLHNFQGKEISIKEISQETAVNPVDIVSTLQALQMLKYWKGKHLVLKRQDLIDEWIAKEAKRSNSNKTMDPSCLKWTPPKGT
T4 sequence (Q92993 whole entry): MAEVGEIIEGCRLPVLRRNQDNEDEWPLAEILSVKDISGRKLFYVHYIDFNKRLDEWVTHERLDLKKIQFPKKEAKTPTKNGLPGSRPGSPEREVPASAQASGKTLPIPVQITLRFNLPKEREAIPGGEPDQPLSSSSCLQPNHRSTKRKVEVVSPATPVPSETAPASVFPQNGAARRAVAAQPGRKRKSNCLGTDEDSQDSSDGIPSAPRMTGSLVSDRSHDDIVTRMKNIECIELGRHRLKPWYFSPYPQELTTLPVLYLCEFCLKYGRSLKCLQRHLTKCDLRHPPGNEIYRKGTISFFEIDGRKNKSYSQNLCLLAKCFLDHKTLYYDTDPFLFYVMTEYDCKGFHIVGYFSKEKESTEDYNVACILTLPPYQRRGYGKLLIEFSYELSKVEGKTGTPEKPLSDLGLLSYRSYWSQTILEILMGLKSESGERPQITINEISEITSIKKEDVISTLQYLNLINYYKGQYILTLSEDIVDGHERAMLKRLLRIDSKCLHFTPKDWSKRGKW

Cc1cc2cc3c(=O)[nH]c(=O)cc-3n(CC(O)C(O)C(O)CO)c2cc1C (stereo not drawn) [NSC-275266]
HAT1 inhibitory activity in library screens (rank, active or inactive) [1]: fifth best hit

Cc1cc2nc3c(=O)[nH]c(=O)nc-3n(C[C@H](O)[C@H](O)[C@H](O)COP(=O)(O)OP(=O)(O)OC[C@H]3O[C@@H](n4cnc5c(N)ncnc54)[C@H](O)[C@@H]3O)c2cc1C [FAD, flavin-adenine-dinucleotide]
HAT1 inhibitory activity of flavonoids in dose-response [1]: no detectable inhibitory activity

COC1=C(N)C(=O)c2nc(-c3nc(C(=O)O)c(C)c(-c4ccc(OC)c(OC)c4O)c3N)ccc2C1=O [NSC-83950]
HAT1 inhibitory activity in library screens (rank, active or inactive) [1]: inhibitory activity

Oc1ccccc1-c1nc2c3ccccc3c3ccccc3c2[nH]1 [NSC-332670]
HAT1 inhibitory activity in library screens (rank, active or inactive) [1]: inhibitory activity

CCc1cc2c(cc1Cl)nc1c(=O)[nH]c(=O)nc-1n2CCCOc1cccc(C#N)c1 [JG-2088]
HAT1 inhibitory activity in library screens (rank, active or inactive) [1]: interfered with enzyme inhibition

CCCC(=O)OC[C@@H](OC(=O)CCC)[C@@H](OC(=O)CCC)[C@H](Cn1c2nc(=O)[nH]c(=O)c-2nc2cc(C)c(C)cc21)OC(=O)CCC [riboflavin tetrabutyrate]
pIC50 [1]: 4.77

NC(=S)c1cn(C2OC(CO)C(O)C2O)c2ncnc(N)c12 (stereo not drawn) [NSC-105827]
HAT1 inhibitory activity in library screens (rank, active or inactive) [1]: inhibitory activity

H4K12-CoA: co-enzyme A chemically ligated to the ζ-amine of lysine 12 in the histone H4 N-terminal 20-mer peptide
inhibition of HAT1/Rbap46 by bi-substrate inhibitors [1]: robust inhibition | pIC50 [1]: ~6.00 | cell growth inhibition [2]: no inhibitory activity | pKi [3]: ~9.00

CCc1cc2c(cc1Cl)nc1c(=O)[nH]c(=O)nc-1n2CCOCc1ccc(C#N)cc1 [JG-2092]
HAT1 inhibitory activity in library screens (rank, active or inactive) [1]: interfered with enzyme inhibition

Cc1cc2nc3c(=O)[nH]c(=O)nc-3n(C[C@H](O)[C@H](O)[C@H](O)CO)c2cc1N(C)C [roseoflavin, reference compound]
HAT1 inhibitory activity in library screens (rank, active or inactive) [1]: inactive | cell growth inhibition [2]: strong cell growth inhibitory properties

Cc1cc2nc3c(=O)[nH]c(=O)nc-3n(C[C@H](O)[C@H](O)[C@H](O)COP(=O)(O)O)c2cc1C [FMN, flavin-mononucleotide]
HAT1 inhibitory activity of flavonoids in dose-response [1]: no detectable inhibitory activity

CCc1cc2c(cc1Cl)nc1c(=O)[nH]c(=O)nc-1n2CCOCc1cccc(F)c1 [JG-2069]
HAT1 inhibitory activity in library screens (rank, active or inactive) [1]: interfered with enzyme inhibition

Cc1cc2nc3[nH]c(=O)[nH]c(=O)c3nc2cc1C [di-methyl-alloxazine]
HAT1 inhibitory activity of flavonoids in dose-response [1]: no detectable inhibitory activity

O=c1nc2n(C[C@H](O)[C@H](O)[C@H](O)CO)c3cc(Cl)c(Cl)cc3nc-2c(=O)[nH]1 [NSC-42186]
pIC50 [1]: 4.22 and 4.42 | % inhibition of HAT1 activity ([1]; single dose 100 μM): 31%

CC(C)(COP(=O)(O)OP(=O)(O)OC[C@H]1O[C@@H](n2cnc3c(N)ncnc32)[C@H](O)[C@@H]1OP(=O)(O)O)[C@@H](O)C(=O)NCCC(=O)NCCSC(=O)[C@@H](N)CCCCN [lysyl-CoA]
inhibition of HAT1/Rbap46 by bi-substrate inhibitors [1]: no inhibitory activity

CCc1cc2c(cc1Cl)nc1c(=O)[nH]c(=O)nc-1n2CCOCC(C)C [JG-2016, 7-chloro-8-ethyl-10-(2-isobutoxyethyl)benzo[g]pteridine-2,4(3H, 10H)-dione]
pIC50 [4]: 4.04 | inhibitory activity towards GCN5 [5]: minimal or undetectable inhibitory activity | inhibitory activity towards KAT5 [6]: minimal or undetectable inhibitory activity | pIC50 [7]: 4.07 | inhibitory activity towards MYST4/KAT6b [8]: minimal or undetectable inhibitory activity | inhibitory activity towards PCAF [9]: minimal or undetectable inhibitory activity | pIC50 [10]: 4.13 | cell growth inhibition [2]: among the most potent inhibitors of cell growth | pEC50 ([2]; Homo sapiens): 4.98 | pEC50 [11]: 5.72 | pIC50 ([11]; read-out: IC50 required to impair cell proliferation): 5.72 | pEC50 [12]: 4.53 | time course of H4 acetylation inhibition ([13]; hTert-HME1, EGF stimulation 8, 10, 12 hours): on-target inhibition as early as 8 hours post-treatment that persisted through 12 hours | inhibition of H4 lysine 5 and 12 acetylation ([13]; hTert-HME1, dose series): dose-dependent inhibition | tissue accumulation by fluorescence imaging ([14]; healthy mice, 500 mg/kg i.p.): high accumulation adipose tissue | tissue accumulation by fluorescence imaging ([14]; mice bearing bilateral A549 tumors, 100 mg/kg once): compound accumulation in subcutaneous adipose tissues (SAT), visceral adipose tissue (VAT), and tumors | tolerated single intraperitoneal dose with minimal toxicity [15]: up to 250 mg/kg | toxicity signs ([15]; 500 mg/kg): signs of distress | tumor growth versus vehicle ([16]; 50 mg/kg and 100 mg/kg i.p. once every three days from day 13): significantly impaired tumor growth | dose-response of tumor growth suppression ([16]; higher dose (100 mg/kg) compared to lower dose (50 mg/kg)): more profound suppression of tumor growth

O=C(O)Cc1ccc(N=Nc2c(O)c(C(=O)O)cc3ccccc23)cc1 [NSC-156563]
HAT1 inhibitory activity in library screens (rank, active or inactive) [1]: inhibitory activity

CC(=O)OCCn1c2nc(=O)[nH]c(=O)c-2nc2cc(C)c(C)cc21 [NSC-3064]
HAT1 inhibitory activity in library screens (rank, active or inactive) [1]: top hit
